{"source": "patent EP0457381B1", "about": "“Delta 2-cephem sulphones” (PHARMACIA S.p.A., priority 1990, dated 1991)", "molecular_target": "T1, human leukocyte elastase (HLE) (Homo sapiens, UniProt P08246)", "T1 construct": "purchased Calbiochem", "T1 sequence (P08246 30-267)": "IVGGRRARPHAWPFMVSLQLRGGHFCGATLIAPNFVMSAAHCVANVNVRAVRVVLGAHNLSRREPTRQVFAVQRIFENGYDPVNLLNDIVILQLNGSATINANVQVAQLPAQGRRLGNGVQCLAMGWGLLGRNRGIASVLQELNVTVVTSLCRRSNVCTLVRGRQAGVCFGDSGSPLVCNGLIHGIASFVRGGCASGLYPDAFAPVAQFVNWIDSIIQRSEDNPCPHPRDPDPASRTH", "assay": "Kinetic parameters of HLE inhibition, fluorogenic substrate N-methoxysuccinyl-alanyl-alanyl-prolyl-valyl-7-amido-4-methylcoumarin", "assay_type": "biochemical", "settings": "HLE (Calbiochem), 37°C, phosphate buffer pH 7.4, I= 0.15, 1% DMSO and 1% MeCN; for Ki: apparent dissociation constant of HLE-inhibitor complex at steady state; for k₅/Ki: rate of formation of HLE-inhibitor complex", "excerpt": "The inhibitory activity on human leukocyte elastase (HLE) of Δ-cephem sulphones of the invention, designated as Compound 4 and Compound 5 in Table 1 above, and of the Δ³-cephem sulphone Merck S.&D. L-659,286, which, to our best knowledge, is the most advanced β-lactam product under study as an HLE-inhibitor (Ann. Rev. Resp. Dis. 1988, 137:204; Journal of Cellular Biochemistry 1989, 39:47), was compared as described below.\nThe reference compound 7α-methoxy-3-(2-methyl-5-oxo-6-hydroxy-2,5-dihydro-1,2,4-triazin-3-yl)thiomethyl-3-cephem-4-pyrrolidine-carboxamide-1,1-dioxide (Merck's code-name; L-659,286) was synthesized in our laboratories from 7-amino-3-desacetoxy-cephalosporanic acid. Its structural identity and purity (≥95%) was confirmed by spectral and analytical data.\nThe kinetic parameters of HLE (Calbiochem) inhibition were determined at 37°C in phosphate buffer (pH 7.4, I= 0.15) with 1% DMSO and 1% MeCN as solubilizing vehicles, monitoring fluorometrically (λex= 383 nm; λem = 455 nm) the release of 7-amino-4-methylcoumarin from the fluorogenic substrate N-methoxysuccinyl-alanyl-alanyl-prolyl-valyl-7-amido-4-methylcoumarin. Best fit to the progress curves was obtained by a two-step mechanism (mechanism B in J.F. Morrison, TIBS 1982, 7:102; see also J.F. Morrison and C.T. Walsh, Advances in Enzymology, vol. 61, A. Meister editor, John Wiley & Sons 1988): [drawing 9] Product release versus time was analysed using the following function: [P] = vs t + (vi -vs (1-e)^-kt )/k [formula] wherein [P] = product concentration, vs = steady state rate, vi = initial rate of product release and k = k6 + (k5 /Ki )([I])/(1 + [S]/Km + [I]/Ki); Ki = k4 /k3 [formula] wherein [I] and [S] = inhibitor and substrate concentration, and Km = Michaelis constant for the enzymesubstrate pair (independently determined under the same experimental conditions). At steady state, inhibition is fully determined by the steady-state inhibition constant Ki* (steady state): Ki * = Ki (k6)/(k5 + k6) [formula]", "data": [{"smiles": "COC(=O)C1(/C=C\\C(=O)OC(C)(C)C)C(C)=CS(=O)(=O)[C@@H]2[C@@H](Cl)C(=O)N21", "note": "(stereo partly drawn) [Compound 4, Methyl 7α-chloro-4-[(Z)-2-tert-butoxycarbonylethenyl]-3-methyl-2-cephem-4-carboxylate-1,1-dioxide]", "values": [{"measurement": "Ki", "value": 64, "unit": "nM"}, {"measurement": "k₅/Ki", "value": "k₅/Ki = 7,200 M⁻¹s⁻¹"}]}, {"smiles": "COC(=O)C1(C=CC(=O)OC(C)(C)C)C(C)=C(/C=C/C(=O)OC(C)(C)C)S(=O)(=O)[C@@H]2[C@@H](Cl)C(=O)N21", "note": "(stereo partly drawn) [Compound 5, Methyl-7α-Chloro-2,4-bis[2-tert-butoxycarbonylethenyl]-3-methyl-2-cephem-4-carboxylate-1,1-dioxide]", "values": [{"measurement": "Ki", "value": 5.2, "unit": "nM"}]}, {"smiles": "CO[C@H]1C(=O)N2C(C(=O)N3CCCC3)=C(CSc3nc(=O)c(O)nn3C)CS(=O)(=O)[C@H]12", "note": "[Reference compound, 7α-methoxy-3-(2-methyl-5-oxo-6-hydroxy-2,5-dihydro-1,2,4-triazin-3-yl)thiomethyl-3-cephem-4-pyrrolidine-carboxamide-1,1-dioxide, reference compound]", "values": [{"measurement": "Ki", "value": 140, "unit": "nM"}, {"measurement": "k₅/Ki", "value": "k₅/Ki = 8,000 M⁻¹s⁻¹"}]}]}
